# Laboratory results taken from patent EP0942911B1, “BENZOPYRANOPYRROLE AND BENZOPYRANOPYRIDINE ALPHA-1 ADRENERGIC COMPOUNDS” (Abbott Laboratories, priority 1996, dated 1998).
# Where a name gives a salt, the structure may show the parent alone.
# Experiments:
# Experiment in all cases: biochemical
# α-1b adrenoreceptor = target: T1, α-1b adrenoreceptor (Mesocricetus auratus, UniProt P18841); assay type: binding, hamster; settings: [3H]-prazosin radioligand; cloned receptor in LTK cell membranes; read-out: Radioligand Binding (Ki, nM) 1b (Hamster)
# T1 sequence (P18841 1-515): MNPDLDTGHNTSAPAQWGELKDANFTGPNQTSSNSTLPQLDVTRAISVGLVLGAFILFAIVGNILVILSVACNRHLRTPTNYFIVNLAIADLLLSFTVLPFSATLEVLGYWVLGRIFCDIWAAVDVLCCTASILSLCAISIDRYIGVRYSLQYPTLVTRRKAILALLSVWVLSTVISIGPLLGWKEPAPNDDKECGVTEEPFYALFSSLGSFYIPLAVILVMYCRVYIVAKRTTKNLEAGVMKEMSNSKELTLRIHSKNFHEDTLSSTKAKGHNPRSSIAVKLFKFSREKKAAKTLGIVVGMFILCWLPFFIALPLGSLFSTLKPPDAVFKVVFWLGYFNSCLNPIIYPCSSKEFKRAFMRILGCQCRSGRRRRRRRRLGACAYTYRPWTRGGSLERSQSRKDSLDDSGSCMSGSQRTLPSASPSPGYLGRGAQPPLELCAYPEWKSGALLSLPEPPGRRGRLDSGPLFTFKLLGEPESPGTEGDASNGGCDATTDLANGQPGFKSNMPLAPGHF
# In short: (§1)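 Membranes from LTK mouse fibroblast clones stably transfected with α-1a, α-1b or α-1d cDNA, resuspended in 50 mM Tris-HCl pH 7.4, served for radioligand displacement read by liquid scintillation. Rat submaxillary gland tissue supplied the α-1A receptor.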
# α-1a adrenoreceptor = target: T2, α-1a adrenoreceptor (Bos taurus, UniProt P18130); assay type: binding, bovine; settings: [3H]-prazosin radioligand; cloned receptor in LTK cell membranes; read-out: Radioligand Binding (Ki, nM) 1a (Bovine)
# T2 sequence (P18130 1-466): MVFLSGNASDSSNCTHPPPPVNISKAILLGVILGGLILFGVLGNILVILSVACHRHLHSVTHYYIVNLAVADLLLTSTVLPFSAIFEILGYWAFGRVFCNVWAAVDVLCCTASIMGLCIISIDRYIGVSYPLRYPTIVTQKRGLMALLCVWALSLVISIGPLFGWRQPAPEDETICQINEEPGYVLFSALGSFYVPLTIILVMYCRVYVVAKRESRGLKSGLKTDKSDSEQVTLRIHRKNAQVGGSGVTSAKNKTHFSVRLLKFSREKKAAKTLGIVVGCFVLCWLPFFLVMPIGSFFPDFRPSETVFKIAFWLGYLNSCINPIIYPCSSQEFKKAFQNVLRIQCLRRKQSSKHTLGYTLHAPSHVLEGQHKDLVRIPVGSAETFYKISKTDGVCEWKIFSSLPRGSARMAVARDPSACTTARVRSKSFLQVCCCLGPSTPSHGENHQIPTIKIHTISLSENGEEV
# In short: as §1
# [1] = target: T3, α-1A adrenoreceptor (rat submaxillary gland) (Rattus norvegicus, UniProt P43140); assay type: binding; settings: [3H]-prazosin radioligand; rat submaxillary gland membranes; read-out: Radioligand Binding (Ki, nM) 1A (Rat)
# T3 sequence (P43140 1-466): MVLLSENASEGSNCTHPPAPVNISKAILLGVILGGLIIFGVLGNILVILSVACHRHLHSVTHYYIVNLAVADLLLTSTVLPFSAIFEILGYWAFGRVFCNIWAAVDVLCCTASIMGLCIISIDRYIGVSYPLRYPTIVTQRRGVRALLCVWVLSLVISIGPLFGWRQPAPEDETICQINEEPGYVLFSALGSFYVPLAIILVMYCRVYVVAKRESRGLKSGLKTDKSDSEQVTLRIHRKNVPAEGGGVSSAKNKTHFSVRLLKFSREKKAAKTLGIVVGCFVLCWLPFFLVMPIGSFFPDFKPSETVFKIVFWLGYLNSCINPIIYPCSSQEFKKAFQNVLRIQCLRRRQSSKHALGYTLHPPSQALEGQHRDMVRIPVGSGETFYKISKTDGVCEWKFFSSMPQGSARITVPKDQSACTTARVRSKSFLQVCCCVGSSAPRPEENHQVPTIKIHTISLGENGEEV
# In short: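 Membranes were prepared from rat submaxillary glands as the α-1A adrenoreceptor source. Competition binding followed Greengrass and Bremner, with bound radioligand measured by scintillation counting.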
# α-1d adrenoreceptor = target: T4, α-1d adrenoreceptor (Rattus norvegicus, UniProt P23944); assay type: binding; settings: [3H]-prazosin radioligand; cloned receptor in LTK cell membranes; read-out: Radioligand Binding (Ki, nM) 1d (Rat)
# T4 sequence (P23944 1-561): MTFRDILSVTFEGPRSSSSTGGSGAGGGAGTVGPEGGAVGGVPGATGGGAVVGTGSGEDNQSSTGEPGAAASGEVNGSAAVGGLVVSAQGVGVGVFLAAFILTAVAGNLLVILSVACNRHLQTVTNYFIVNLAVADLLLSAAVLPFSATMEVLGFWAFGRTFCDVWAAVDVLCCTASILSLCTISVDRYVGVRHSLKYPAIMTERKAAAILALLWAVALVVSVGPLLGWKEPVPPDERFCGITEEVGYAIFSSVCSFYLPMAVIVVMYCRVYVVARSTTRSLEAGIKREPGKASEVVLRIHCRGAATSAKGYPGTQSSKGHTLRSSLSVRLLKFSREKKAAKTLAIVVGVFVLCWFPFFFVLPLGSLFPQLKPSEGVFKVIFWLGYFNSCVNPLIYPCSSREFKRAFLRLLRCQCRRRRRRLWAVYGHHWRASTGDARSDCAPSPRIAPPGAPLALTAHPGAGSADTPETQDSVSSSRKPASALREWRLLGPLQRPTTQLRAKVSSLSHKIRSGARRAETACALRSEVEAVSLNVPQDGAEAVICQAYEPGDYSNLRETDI
# In short: as §1
SMILES,Ki (α-1b adrenoreceptor) [nM],Ki (α-1a adrenoreceptor) [nM],Ki [1] [nM],Ki (α-1d adrenoreceptor) [nM]
"COc1cccc2c1[C@@H]1CN(CCCCn3c(=O)[nH]c4c(sc5ncc(-c6ccsc6)nc54)c3=O)C[C@H]1CO2 [Example 59, 3-[4-((3aS,9bR)-trans-9-Methoxy-1,2,3,3a,4,9b-hexahydro-[1]-benzopyrano[3,4-c]pyrrol-2-yl)butyl]-8-(3-thienyl)-pyrazino[2',3':4,5]thieno[3,2-d]pyrimidine-2,4(1H,3H)-dione dihydrochloride]",6.74,0.049,0.166,0.257
"COc1cccc2c1[C@H]1CN(CCCCn3c(=O)[nH]c4c(sc5cccnc54)c3=O)C[C@@H]1CO2 [Example 4, 3-[4-((3aR,9bS)-trans-9-Methoxy-1,2,3,3a,4,9b-hexahydro-[1]-benzopyrano[3,4-c]pyrrol-2-yl)butyl]-pyrido[2',3':4,5]thieno[3,2-d]pyrimidine-2,4(1H,3H)-dione hydrochloride]",0.867,0.049,0.097,0.377
"COc1cccc2c1[C@H]1CN(CCCCn3c(=O)[nH]c4c(sc5ccc(Cl)nc54)c3=O)C[C@@H]1CO2 [Example 6, 3-[4-((3aR,9bS)-trans-9-Methoxy-1,2,3,3a,4,9b-hexahydro-[1]-benzopyrano[3,4-c]pyrrol-2-yl)butyl]-8-chloro-pyrido[2',3':4,5]thieno[3,2-d]pyrimidine-2,4(1H,3H)-dione dihydrochloride]",2,0.173,0.409,0.302
"COc1cccc2c1[C@@H]1CN(CCCCn3c(=O)[nH]c4c(sc5ncc(-c6ccoc6)nc54)c3=O)C[C@@H]1CO2 [Example 62, 3-[4-((3aR,9bR)-cis-9-Methoxy-1,2,3,3a,4,9b-hexahydro-[1]-benzopyrano[3,4-c]pyrrol-2-yl)butyl]-8-(3-furyl)-pyrazino[2',3':4,5]thieno[3,2-d]pyrimidine-2,4(1H,3H)-dione dihydrochloride]",1150,52,983,411
"COc1cccc2c1[C@@H]1CN(CCCCn3c(=O)[nH]c4c(sc5ncc(-c6cccnc6)nc54)c3=O)C[C@@H]1CO2 [Example 61, 3-[4-((3aR,9bR)-cis-9-Methoxy-1,2,3,3a,4,9b-hexahydro-[1]-benzopyrano[3,4-c]pyrrol-2-yl)butyl]-8-(3-pyridyl)-pyrazino[2',3':4,5]thieno[3,2-d]pyrimidine-2,4(1H,3H)-dione dihydrochloride]",8.85,0.15,0.152,0.336
"COc1ccc2c(n1)sc1c(=O)n(CCCCN3CC[C@H]4c5c(OC)cccc5OC[C@@H]4C3)c(=O)[nH]c12 [Example 103, 3-[4-((4aS,10bR)-trans-10-Methoxy-1,3,4,4a,5,10b-hexahydro-2H-[1]-benzopyrano[3,4-c]pyrido-3-yl)butyl]-7-methoxy-pyrido[3',2':4,5]thieno[3,2-d]pyrimidine-2,4(1H,3H)-dione hydrochloride]",3.33,0.115,0.909,0.243
"COc1cccc2c1[C@@H]1CN(CCCCn3c(=O)[nH]c4c(sc5ccccc54)c3=O)C[C@H]1CO2 [Example 21, 3-[4-((3aS,9bR)-trans-9-Methoxy-1,2,3,3a,4,9b-hexahydro-[1]-benzopyrano[3,4-c]pyrrol-2-yl)butyl]-[1]benzthieno[3,2-d]pyrimidine-2,4(1H,3H)-dione hydrochloride]",0.326,0.018,0.03,0.03
"COc1cccc2c1[C@H]1CN(CCCCn3c(=O)[nH]c4c(sc5ncc(Cl)nc54)c3=O)C[C@@H]1CO2 [Example 10, 3-[4-((3aR,9bS)-trans-9-Methoxy-1,2,3,3a,4,9b-hexahydro-[1]-benzopyrano[3,4-c]pyrrol-2-yl)butyl]-8-chloro-pyrazino[2',3':4,5]thieno[3,2-d]pyrimidine-2,4(1H,3H)-dione hydrochloride]",10.4,0.406,0.662,1.6
"COCCn1c(=O)n(CCCCN2C[C@@H]3COc4cccc(OC)c4[C@H]3C2)c(=O)c2sc3nccnc3c21 [Example 11, 3-[4-((3aR,9bS)-trans-9-Methoxy-1,2,3,3a,4,9b-hexahydro-[1]-benzopyrano[3,4-c]pyrrol-2-yl)butyl]-1-(2-Methoxyethyl)-pyrazino[2',3':4,5]thieno[3,2-d]pyrimidine-2,4(1H,3H)-dione hydrochloride]",3.78,0.243,0.374,1.46
"COc1cccc2c1[C@H]1CN(CCCCn3c(=O)[nH]c4c(sc5c(OC)ccnc54)c3=O)C[C@@H]1CO2 [Example 8, 3-[4-((3aR,9bS)-trans-9-Methoxy-1,2,3,3a,4,9b-hexahydro-[1]-benzopyrano[3,4-c]pyrrol-2-yl)butyl]-6-methoxy-pyrido[2',3':4,5]thieno[3,2-d]pyrimidine-2,4(1H,3H)-dione dihydrochloride]",4.19,0.362,0.762,1.42
"COc1cc2[nH]c(=O)n(CCCN3CC[C@H]4c5c(OC)cccc5OC[C@@H]4C3)c(=O)c2cc1OC (racemic) [Example 83, 3-[3-(±)-trans-10-Methoxy-1,3,4,4a,5,10b-hexahydro-2H-[1]-benzopyrano[3,4-c]pyrido-3-yl)propyl]-6,7-dimethoxy-quinazoline-2,4(1H,3H)-dione hydrochloride]",3.07,0.217,0.383,0.807
"COc1cccc2c1[C@@H]1CCN(CCCCn3c(=O)[nH]c4c(sc5ccc(-c6ccccc6)nc54)c3=O)C[C@H]1CO2 [Example 101, 3-[4-((4aS,10bR)-trans-10-Methoxy-1,3,4,4a,5,10b-hexahydro-2H-[1]-benzopyrano[3,4-c]pyrido-3-yl)butyl]-8-phenyl-pyrido[2',3':4,5]thieno[3,2-d]pyrimidine-2,4(1H,3H)-dione dihydrochloride]",8.41,0.063,1.27,0.597
"COc1cccc2c1[C@@H]1CN(CCCCCn3c(=O)[nH]c4c(sc5ccccc54)c3=O)C[C@H]1CO2 [Example 23, 3-[5-((3aS,9bR)-trans-9-Methoxy-1,2,3,3a,4,9b-hexahydro-[1]-benzopyrano[3,4-c]pyrrol-2-yl)pentyl]-[1]benzthieno[3,2-d]pyrimidine-2,4(1H,3H)-dione hydrochloride]",0.973,0.046,0.743,0.639
